{"source": "PubChem BioAssay (NCI)", "assay_in_all_cases": "growth of human tumour cells (NCI), 48 h", "key": {"MALME-3M melanoma": {"tested_on": "MALME-3M melanoma"}, "HOP-62 NSCLC": {"tested_on": "HOP-62 NSCLC"}, "NCI-H522 lung": {"tested_on": "NCI-H522 lung"}, "U251 CNS": {"tested_on": "U251 CNS"}, "HCC-2998 colon": {"tested_on": "HCC-2998 colon"}, "UACC-257 melanoma": {"tested_on": "UACC-257 melanoma"}, "LOX IMVI melanoma": {"tested_on": "LOX IMVI melanoma"}, "SK-MEL-2 melanoma": {"tested_on": "SK-MEL-2 melanoma"}, "IGROV1 ovarian": {"tested_on": "IGROV1 ovarian"}, "CCRF-CEM leukemia": {"tested_on": "CCRF-CEM leukemia"}}, "note": "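Assay format: 96-well plates, 48-hour exposure. Definition used: TGI = concentration required for complete inhibition of growth.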", "data": [{"smiles": "O=CC1=CCC2c3[nH]c4ccccc4c3CCN2C1", "note": "(centres undefined)", "values": [{"measurement": "TGI", "setting": "MALME-3M melanoma", "result": "> 396", "unit": "µM"}, {"measurement": "TGI", "setting": "HOP-62 NSCLC", "result": "> 39.6", "unit": "µM"}, {"measurement": "TGI", "setting": "NCI-H522 lung", "result": "> 396", "unit": "µM"}, {"measurement": "TGI", "setting": "U251 CNS", "result": 195, "unit": "µM"}, {"measurement": "TGI", "setting": "HCC-2998 colon", "result": 253, "unit": "µM"}, {"measurement": "TGI", "setting": "UACC-257 melanoma", "result": 347, "unit": "µM"}, {"measurement": "TGI", "setting": "LOX IMVI melanoma", "result": 111, "unit": "µM"}, {"measurement": "TGI", "setting": "SK-MEL-2 melanoma", "result": 267, "unit": "µM"}, {"measurement": "TGI", "setting": "IGROV1 ovarian", "result": "> 396", "unit": "µM"}, {"measurement": "TGI", "setting": "CCRF-CEM leukemia", "result": "> 396", "unit": "µM"}]}, {"smiles": "c1cc2c(cc1[C@@H]1OC[C@@H]3[C@H]1CO[C@H]3c1ccc3c(c1)OCO3)OCO2", "values": [{"measurement": "TGI", "setting": "MALME-3M melanoma", "result": "> 100", "unit": "µM"}, {"measurement": "TGI", "setting": "HOP-62 NSCLC", "result": "> 100", "unit": "µM"}, {"measurement": "TGI", "setting": "NCI-H522 lung", "result": "> 100", "unit": "µM"}, {"measurement": "TGI", "setting": "U251 CNS", "result": "> 100", "unit": "µM"}, {"measurement": "TGI", "setting": "HCC-2998 colon", "result": "> 100", "unit": "µM"}, {"measurement": "TGI", "setting": "UACC-257 melanoma", "result": 80.7, "unit": "µM"}, {"measurement": "TGI", "setting": "LOX IMVI melanoma", "result": "> 100", "unit": "µM"}, {"measurement": "TGI", "setting": "SK-MEL-2 melanoma", "result": "> 100", "unit": "µM"}, {"measurement": "TGI", "setting": "IGROV1 ovarian", "result": "> 100", "unit": "µM"}, {"measurement": "TGI", "setting": "CCRF-CEM leukemia", "result": "> 100", "unit": "µM"}]}, {"smiles": "COc1ccc(CC[N+]2(C)COc3cc4oc(=O)cc(C)c4cc3C2)cc1OC", "note": "(centres undefined)", "values": [{"measurement": "TGI", "setting": "MALME-3M melanoma", "result": "> 100", "unit": "µM"}, {"measurement": "TGI", "setting": "HOP-62 NSCLC", "result": "> 100", "unit": "µM"}, {"measurement": "TGI", "setting": "NCI-H522 lung", "result": "> 100", "unit": "µM"}, {"measurement": "TGI", "setting": "U251 CNS", "result": "> 100", "unit": "µM"}, {"measurement": "TGI", "setting": "HCC-2998 colon", "result": "> 100", "unit": "µM"}, {"measurement": "TGI", "setting": "UACC-257 melanoma", "result": "> 100", "unit": "µM"}, {"measurement": "TGI", "setting": "LOX IMVI melanoma", "result": "> 100", "unit": "µM"}, {"measurement": "TGI", "setting": "SK-MEL-2 melanoma", "result": "> 100", "unit": "µM"}, {"measurement": "TGI", "setting": "IGROV1 ovarian", "result": "> 100", "unit": "µM"}, {"measurement": "TGI", "setting": "CCRF-CEM leukemia", "result": "> 100", "unit": "µM"}]}, {"smiles": "CC(C)[C@@H]1NC(=O)[C@@H]2N=C(O[C@H]2C)[C@H](C(C)C)NC(=O)C2N=C1O[C@H]2C", "values": [{"measurement": "TGI", "setting": "MALME-3M melanoma", "result": "> 100", "unit": "µM"}, {"measurement": "TGI", "setting": "HOP-62 NSCLC", "result": "> 100", "unit": "µM"}, {"measurement": "TGI", "setting": "NCI-H522 lung", "result": "> 100", "unit": "µM"}, {"measurement": "TGI", "setting": "HCC-2998 colon", "result": "> 100", "unit": "µM"}, {"measurement": "TGI", "setting": "UACC-257 melanoma", "result": "> 100", "unit": "µM"}, {"measurement": "TGI", "setting": "LOX IMVI melanoma", "result": "> 100", "unit": "µM"}, {"measurement": "TGI", "setting": "SK-MEL-2 melanoma", "result": "> 100", "unit": "µM"}, {"measurement": "TGI", "setting": "IGROV1 ovarian", "result": "> 100", "unit": "µM"}, {"measurement": "TGI", "setting": "CCRF-CEM leukemia", "result": "> 100", "unit": "µM"}]}, {"smiles": "CC(=O)O[C@H]1C(=O)[C@@]2(C)[C@H]([C@H](OC(=O)c3ccco3)[C@]3(O)C[C@H](OC(=O)[C@H](O)[C@@H](NC(=O)c4ccccc4)c4ccccc4)C(C)=C1C3(C)C)[C@]1(OC(C)=O)CO[C@@H]1C[C@@H]2O", "values": [{"measurement": "TGI", "setting": "MALME-3M melanoma", "result": "> 25", "unit": "µM"}, {"measurement": "TGI", "setting": "HOP-62 NSCLC", "result": "> 25", "unit": "µM"}, {"measurement": "TGI", "setting": "U251 CNS", "result": "> 25", "unit": "µM"}, {"measurement": "TGI", "setting": "HCC-2998 colon", "result": 20, "unit": "µM"}, {"measurement": "TGI", "setting": "UACC-257 melanoma", "result": "> 25", "unit": "µM"}, {"measurement": "TGI", "setting": "LOX IMVI melanoma", "result": "> 25", "unit": "µM"}, {"measurement": "TGI", "setting": "SK-MEL-2 melanoma", "result": 0.578, "unit": "µM"}, {"measurement": "TGI", "setting": "IGROV1 ovarian", "result": "> 25", "unit": "µM"}, {"measurement": "TGI", "setting": "CCRF-CEM leukemia", "result": 0.837, "unit": "µM"}]}, {"smiles": "COC(=O)C(NC(=O)c1ccccc1)C(c1c(O)cc(O)cc1O)P(=O)(OC)OC", "note": "(centres undefined)", "values": [{"measurement": "TGI", "setting": "HOP-62 NSCLC", "result": "> 100", "unit": "µM"}, {"measurement": "TGI", "setting": "NCI-H522 lung", "result": "> 100", "unit": "µM"}, {"measurement": "TGI", "setting": "U251 CNS", "result": "> 100", "unit": "µM"}, {"measurement": "TGI", "setting": "HCC-2998 colon", "result": "> 100", "unit": "µM"}, {"measurement": "TGI", "setting": "UACC-257 melanoma", "result": "> 100", "unit": "µM"}, {"measurement": "TGI", "setting": "LOX IMVI melanoma", "result": "> 100", "unit": "µM"}, {"measurement": "TGI", "setting": "SK-MEL-2 melanoma", "result": "> 100", "unit": "µM"}, {"measurement": "TGI", "setting": "IGROV1 ovarian", "result": "> 100", "unit": "µM"}, {"measurement": "TGI", "setting": "CCRF-CEM leukemia", "result": "> 100", "unit": "µM"}]}, {"smiles": "CCOC(=O)c1csc(NC(=O)C(C)N2CCOCC2)n1", "note": "(centres undefined)", "values": [{"measurement": "TGI", "setting": "MALME-3M melanoma", "result": "> 100", "unit": "µM"}, {"measurement": "TGI", "setting": "HOP-62 NSCLC", "result": "> 100", "unit": "µM"}, {"measurement": "TGI", "setting": "U251 CNS", "result": "> 100", "unit": "µM"}, {"measurement": "TGI", "setting": "HCC-2998 colon", "result": "> 100", "unit": "µM"}, {"measurement": "TGI", "setting": "UACC-257 melanoma", "result": "> 100", "unit": "µM"}, {"measurement": "TGI", "setting": "LOX IMVI melanoma", "result": "> 100", "unit": "µM"}, {"measurement": "TGI", "setting": "SK-MEL-2 melanoma", "result": "> 100", "unit": "µM"}, {"measurement": "TGI", "setting": "IGROV1 ovarian", "result": "> 100", "unit": "µM"}, {"measurement": "TGI", "setting": "CCRF-CEM leukemia", "result": "> 100", "unit": "µM"}]}, {"smiles": "Cn1c(NC(=O)NC23CC4CC(CC(C4)C2)C3)nc2ccccc21", "values": [{"measurement": "TGI", "setting": "MALME-3M melanoma", "result": 81.6, "unit": "µM"}, {"measurement": "TGI", "setting": "HOP-62 NSCLC", "result": "> 100", "unit": "µM"}, {"measurement": "TGI", "setting": "NCI-H522 lung", "result": "> 100", "unit": "µM"}, {"measurement": "TGI", "setting": "U251 CNS", "result": "> 100", "unit": "µM"}, {"measurement": "TGI", "setting": "HCC-2998 colon", "result": "> 100", "unit": "µM"}, {"measurement": "TGI", "setting": "UACC-257 melanoma", "result": "> 100", "unit": "µM"}, {"measurement": "TGI", "setting": "LOX IMVI melanoma", "result": "> 100", "unit": "µM"}, {"measurement": "TGI", "setting": "SK-MEL-2 melanoma", "result": "> 100", "unit": "µM"}, {"measurement": "TGI", "setting": "IGROV1 ovarian", "result": "> 100", "unit": "µM"}]}, {"smiles": "NC(Cc1ccccc1CP(=O)(O)O)C(=O)O", "note": "(centres undefined)", "values": [{"measurement": "TGI", "setting": "NCI-H522 lung", "result": "> 100", "unit": "µM"}, {"measurement": "TGI", "setting": "U251 CNS", "result": "> 100", "unit": "µM"}, {"measurement": "TGI", "setting": "HCC-2998 colon", "result": "> 100", "unit": "µM"}, {"measurement": "TGI", "setting": "UACC-257 melanoma", "result": "> 100", "unit": "µM"}, {"measurement": "TGI", "setting": "LOX IMVI melanoma", "result": "> 100", "unit": "µM"}, {"measurement": "TGI", "setting": "SK-MEL-2 melanoma", "result": "> 100", "unit": "µM"}, {"measurement": "TGI", "setting": "IGROV1 ovarian", "result": "> 100", "unit": "µM"}, {"measurement": "TGI", "setting": "CCRF-CEM leukemia", "result": "> 100", "unit": "µM"}]}, {"smiles": "S=c1[nH]nc(CCCCCCCCc2n[nH]c(=S)o2)o1", "values": [{"measurement": "TGI", "setting": "HOP-62 NSCLC", "result": "> 100", "unit": "µM"}, {"measurement": "TGI", "setting": "U251 CNS", "result": "> 100", "unit": "µM"}, {"measurement": "TGI", "setting": "UACC-257 melanoma", "result": "> 100", "unit": "µM"}, {"measurement": "TGI", "setting": "LOX IMVI melanoma", "result": "> 100", "unit": "µM"}, {"measurement": "TGI", "setting": "SK-MEL-2 melanoma", "result": "> 100", "unit": "µM"}, {"measurement": "TGI", "setting": "IGROV1 ovarian", "result": "> 100", "unit": "µM"}, {"measurement": "TGI", "setting": "CCRF-CEM leukemia", "result": "> 100", "unit": "µM"}]}, {"smiles": "CC[C@]1(Cc2ccc(OC)c(OC)c2)C=[N+]([O-])O[C@H](OC2CCCC2(c2ccccc2)c2ccccc2)[C@@H]1OC(=O)C(C)(C)C", "note": "(some centres undefined)", "values": [{"measurement": "TGI", "setting": "HOP-62 NSCLC", "result": 6.93, "unit": "µM"}, {"measurement": "TGI", "setting": "NCI-H522 lung", "result": 4.99, "unit": "µM"}, {"measurement": "TGI", "setting": "U251 CNS", "result": "> 55.6", "unit": "µM"}, {"measurement": "TGI", "setting": "HCC-2998 colon", "result": 3.71, "unit": "µM"}, {"measurement": "TGI", "setting": "UACC-257 melanoma", "result": 18.7, "unit": "µM"}, {"measurement": "TGI", "setting": "LOX IMVI melanoma", "result": 4.18, "unit": "µM"}, {"measurement": "TGI", "setting": "SK-MEL-2 melanoma", "result": 7.66, "unit": "µM"}, {"measurement": "TGI", "setting": "IGROV1 ovarian", "result": 9, "unit": "µM"}, {"measurement": "TGI", "setting": "CCRF-CEM leukemia", "result": "> 40.3", "unit": "µM"}]}]}
